Experimental data published in PubChem BioAssay (NCI).
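Protocol summary: plate cells (96-well), add compound at 5 concentrations, incubate 48 h, interpolate endpoints linearly. TGI: total growth inhibition.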

Columns and labels:
Experiment in all cases: NCI-60 cell line screen, 48 h
SN12C renal = system: SN12C renal
U251 CNS = system: U251 CNS
ACHN renal = system: ACHN renal
SF-268 CNS = system: SF-268 CNS
SR leukemia = system: SR leukemia
DLD-1 colon = system: DLD-1 colon
HCT-15 colon = system: HCT-15 colon
HCT-116 colon = system: HCT-116 colon
DMS 273 small cell lung = system: DMS 273 small cell lung
UACC-62 melanoma = system: UACC-62 melanoma
MOLT-4 leukemia = system: MOLT-4 leukemia
OVCAR-8 ovarian = system: OVCAR-8 ovarian
NCI-H460 lung = system: NCI-H460 lung
M19-MEL melanoma = system: M19-MEL melanoma
DMS 114 small cell lung = system: DMS 114 small cell lung
CCRF-CEM leukemia = system: CCRF-CEM leukemia
SW-620 colon = system: SW-620 colon
IGROV1 ovarian = system: IGROV1 ovarian
COLO 205 colon = system: COLO 205 colon
KM12 colon = system: KM12 colon
A498 renal = system: A498 renal
UO-31 renal = system: UO-31 renal
SK-OV-3 ovarian = system: SK-OV-3 ovarian
TK-10 renal = system: TK-10 renal
SNB-78 CNS = system: SNB-78 CNS
K-562 leukemia = system: K-562 leukemia
SNB-75 CNS = system: SNB-75 CNS
HOP-92 NSCLC = system: HOP-92 NSCLC
SNB-19 CNS = system: SNB-19 CNS
MALME-3M melanoma = system: MALME-3M melanoma
SK-MEL-28 melanoma = system: SK-MEL-28 melanoma
SF-539 CNS = system: SF-539 CNS
A549 NSCLC = system: A549 NSCLC
NCI-H23 lung = system: NCI-H23 lung
LXFL 529 NSCLC = system: LXFL 529 NSCLC
OVCAR-3 ovarian = system: OVCAR-3 ovarian
SK-MEL-2 melanoma = system: SK-MEL-2 melanoma
786-0 renal = system: 786-0 renal
M14 melanoma = system: M14 melanoma
HT29 colon = system: HT29 colon
RPMI-8226 leukemia = system: RPMI-8226 leukemia
HOP-62 NSCLC = system: HOP-62 NSCLC
NCI-H522 lung = system: NCI-H522 lung
EKVX NSCLC = system: EKVX NSCLC
XF 498 CNS = system: XF 498 CNS
CAKI-1 renal = system: CAKI-1 renal
SK-MEL-5 melanoma = system: SK-MEL-5 melanoma
OVCAR-5 ovarian = system: OVCAR-5 ovarian
SF-295 CNS = system: SF-295 CNS
OVCAR-4 ovarian = system: OVCAR-4 ovarian
KM20L2 colon = system: KM20L2 colon
NCI-H226 lung = system: NCI-H226 lung
HL-60(TB) leukemia = system: HL-60(TB) leukemia
UACC-257 melanoma = system: UACC-257 melanoma
HCC-2998 colon = system: HCC-2998 colon
LOX IMVI melanoma = system: LOX IMVI melanoma
RXF 393 renal = system: RXF 393 renal

For CCOC(=O)Cn1c(=O)n(C)c(=O)c2[nH]cnc21, the TGI (SN12C renal) was > 100 µM, the TGI (U251 CNS) was > 100 µM and the TGI (ACHN renal) was > 100 µM. The TGI (SF-268 CNS) was > 100 µM, the TGI (SR leukemia) was > 100 µM and the TGI (DLD-1 colon) was > 100 µM. The TGI (HCT-15 colon) was > 100 µM, the TGI (HCT-116 colon) was > 100 µM and the TGI (DMS 273 small cell lung) was > 100 µM. For the same compound, the TGI (UACC-62 melanoma) was > 100 µM, the TGI (MOLT-4 leukemia) was > 100 µM and the TGI (OVCAR-8 ovarian) was > 100 µM. The TGI (NCI-H460 lung) was > 100 µM, the TGI (M19-MEL melanoma) was > 100 µM and the TGI (DMS 114 small cell lung) was > 100 µM. For the same compound, the TGI (CCRF-CEM leukemia) was > 100 µM, the TGI (SW-620 colon) was > 100 µM and the TGI (IGROV1 ovarian) was > 100 µM. For the same compound, the TGI (COLO 205 colon) was > 100 µM, the TGI (KM12 colon) was > 100 µM and the TGI (A498 renal) was > 100 µM. The TGI (UO-31 renal) was > 100 µM, the TGI (SK-OV-3 ovarian) was > 100 µM and the TGI (TK-10 renal) was > 100 µM. For the same compound, the TGI (SNB-78 CNS) was > 100 µM, the TGI (K-562 leukemia) was > 100 µM and the TGI (SNB-75 CNS) was > 100 µM. The TGI (HOP-92 NSCLC) was > 100 µM, the TGI (SNB-19 CNS) was > 100 µM and the TGI (MALME-3M melanoma) was > 100 µM. For the same compound, the TGI (SK-MEL-28 melanoma) was > 100 µM, the TGI (SF-539 CNS) was > 100 µM and the TGI (A549 NSCLC) was > 100 µM. For the same compound, the TGI (NCI-H23 lung) was > 100 µM, the TGI (LXFL 529 NSCLC) was > 100 µM and the TGI (OVCAR-3 ovarian) was > 100 µM. The TGI (SK-MEL-2 melanoma) was > 100 µM, the TGI (786-0 renal) was > 100 µM and the TGI (M14 melanoma) was > 100 µM. For the same compound, the TGI (HT29 colon) was > 100 µM, the TGI (RPMI-8226 leukemia) was > 100 µM and the TGI (HOP-62 NSCLC) was > 100 µM. For the same compound, the TGI (NCI-H522 lung) was > 100 µM, the TGI (EKVX NSCLC) was > 100 µM and the TGI (XF 498 CNS) was > 100 µM. For the same compound, the TGI (CAKI-1 renal) was > 100 µM and the TGI (SK-MEL-5 melanoma) was > 100 µM.
With CN=C(NC#N)N(Cc1ccccc1)Cc1ccccc1 the TGI (SN12C renal) was > 100 µM, the TGI (U251 CNS) was > 100 µM and the TGI (ACHN renal) was > 100 µM. The TGI (OVCAR-5 ovarian) was > 100 µM, the TGI (SF-295 CNS) was > 100 µM and the TGI (SF-268 CNS) was > 100 µM. For the same compound, the TGI (SR leukemia) was > 100 µM, the TGI (DLD-1 colon) was > 100 µM and the TGI (HCT-15 colon) was > 100 µM. For the same compound, the TGI (HCT-116 colon) was > 100 µM, the TGI (DMS 273 small cell lung) was > 100 µM and the TGI (UACC-62 melanoma) was > 100 µM. The TGI (MOLT-4 leukemia) was > 100 µM, the TGI (OVCAR-8 ovarian) was > 100 µM and the TGI (OVCAR-4 ovarian) was > 100 µM. The TGI (KM20L2 colon) was > 100 µM, the TGI (NCI-H226 lung) was > 100 µM and the TGI (NCI-H460 lung) was > 100 µM. The TGI (M19-MEL melanoma) was > 100 µM, the TGI (HL-60(TB) leukemia) was > 100 µM and the TGI (CCRF-CEM leukemia) was > 100 µM. For the same compound, the TGI (SW-620 colon) was > 100 µM, the TGI (IGROV1 ovarian) was > 100 µM and the TGI (COLO 205 colon) was > 100 µM. For the same compound, the TGI (KM12 colon) was > 100 µM, the TGI (A498 renal) was > 100 µM and the TGI (UO-31 renal) was > 100 µM. The TGI (SK-OV-3 ovarian) was > 100 µM, the TGI (TK-10 renal) was > 100 µM and the TGI (UACC-257 melanoma) was > 100 µM. For the same compound, the TGI (SNB-78 CNS) was > 100 µM, the TGI (SNB-75 CNS) was > 100 µM and the TGI (HOP-92 NSCLC) was > 100 µM. For the same compound, the TGI (SNB-19 CNS) was > 100 µM, the TGI (MALME-3M melanoma) was > 100 µM and the TGI (SK-MEL-28 melanoma) was > 100 µM. For the same compound, the TGI (SF-539 CNS) was > 100 µM, the TGI (A549 NSCLC) was > 100 µM and the TGI (NCI-H23 lung) was > 100 µM. For the same compound, the TGI (LXFL 529 NSCLC) was > 100 µM, the TGI (OVCAR-3 ovarian) was > 100 µM and the TGI (SK-MEL-2 melanoma) was > 100 µM. The TGI (786-0 renal) was > 100 µM, the TGI (M14 melanoma) was > 100 µM and the TGI (HT29 colon) was > 100 µM. For the same compound, the TGI (HCC-2998 colon) was > 100 µM, the TGI (RPMI-8226 leukemia) was > 100 µM and the TGI (HOP-62 NSCLC) was > 100 µM. For the same compound, the TGI (NCI-H522 lung) was > 100 µM, the TGI (LOX IMVI melanoma) was > 100 µM and the TGI (EKVX NSCLC) was > 100 µM. The TGI (XF 498 CNS) was > 100 µM, the TGI (CAKI-1 renal) was > 100 µM and the TGI (SK-MEL-5 melanoma) was > 100 µM.
In the case of CCOC(=O)c1oc2c(OC)cc(Cl)c3c2c1CCC3, the TGI (SN12C renal) is reported as > 100 µM, the TGI (U251 CNS) is reported as > 100 µM and the TGI (ACHN renal) is reported as > 100 µM. The TGI (OVCAR-5 ovarian) was > 100 µM, the TGI (SF-295 CNS) was > 100 µM and the TGI (SF-268 CNS) was > 100 µM. The TGI (SR leukemia) was > 100 µM, the TGI (DLD-1 colon) was > 100 µM and the TGI (HCT-15 colon) was > 100 µM. For the same compound, the TGI (HCT-116 colon) was > 100 µM, the TGI (DMS 273 small cell lung) was > 100 µM and the TGI (UACC-62 melanoma) was > 100 µM. For the same compound, the TGI (MOLT-4 leukemia) was > 100 µM, the TGI (OVCAR-8 ovarian) was > 100 µM and the TGI (OVCAR-4 ovarian) was > 100 µM. The TGI (NCI-H226 lung) was 73.3 µM, the TGI (NCI-H460 lung) was > 100 µM and the TGI (M19-MEL melanoma) was > 100 µM. The TGI (HL-60(TB) leukemia) was > 100 µM, the TGI (DMS 114 small cell lung) was > 100 µM and the TGI (CCRF-CEM leukemia) was > 100 µM. For the same compound, the TGI (SW-620 colon) was > 100 µM, the TGI (IGROV1 ovarian) was > 100 µM and the TGI (COLO 205 colon) was > 100 µM. The TGI (KM12 colon) was > 100 µM, the TGI (A498 renal) was > 100 µM and the TGI (UO-31 renal) was 65.1 µM. The TGI (SK-OV-3 ovarian) was > 100 µM, the TGI (TK-10 renal) was 79.3 µM and the TGI (UACC-257 melanoma) was > 100 µM. The TGI (SNB-78 CNS) was > 100 µM, the TGI (K-562 leukemia) was > 100 µM and the TGI (SNB-75 CNS) was 76.5 µM. For the same compound, the TGI (HOP-92 NSCLC) was 63.8 µM, the TGI (SNB-19 CNS) was 97.6 µM and the TGI (MALME-3M melanoma) was > 100 µM. The TGI (SK-MEL-28 melanoma) was > 100 µM, the TGI (RXF 393 renal) was 65.3 µM and the TGI (SF-539 CNS) was > 100 µM. The TGI (A549 NSCLC) was > 100 µM, the TGI (NCI-H23 lung) was > 100 µM and the TGI (LXFL 529 NSCLC) was > 100 µM. For the same compound, the TGI (OVCAR-3 ovarian) was 28.3 µM, the TGI (SK-MEL-2 melanoma) was > 100 µM and the TGI (786-0 renal) was > 100 µM. For the same compound, the TGI (M14 melanoma) was > 100 µM, the TGI (HT29 colon) was > 100 µM and the TGI (HCC-2998 colon) was > 100 µM. For the same compound, the TGI (RPMI-8226 leukemia) was > 100 µM, the TGI (NCI-H522 lung) was > 100 µM and the TGI (LOX IMVI melanoma) was > 100 µM. For the same compound, the TGI (EKVX NSCLC) was > 100 µM, the TGI (XF 498 CNS) was 80.6 µM and the TGI (SK-MEL-5 melanoma) was > 100 µM.
